Measurements taken from patent US20030175906A1, “Nuclease resistant chimeric oligonucleotides” (priority 2001, published 2003).

Assays:
[1] = In vivo nuclease stability of L/D-oligonucleotide chimera, full-length oligonucleotide in organs by CGE; design: species or system BalbC mouse; conditions: IV bolus, after 24 h
Method: Here we report the in vivo nuclease stability of L/D-oligonucleotide chimera in mouse. We synthesized the phosphoramidite and CPG derived from L-thymidine, which was synthesized from a novel route [Jung, E. M.; Xu, Y. Tetrahedron Lett. 1997, 24, 4199-4202]. A 20 mer phosphorothioate oligonucleotide ISIS-120745 (antisense to mouse ICAM-1) was capped with L-2′-deoxy thymidine at 3′ and 5′-positions. The oligonucleotide was then administered IV bolus into BalbC mouse. After 24 h. mouse was sacrificed and the oligonucleotide was isolated from different organs. Percentage of full-length oligonucleotide present in different organs were analyzed by CGE.

Target RNA = test: Tm values of L-thymidine modified oligonucleotides against RNA; assay type: binding

Substance	intact full-length oligonucleotide isolated from all the major organs [1] [%]	ΔTm (Target RNA) [°C]	Tm, Target RNA (Target RNA) [°C]
ISIS 120745: 5′ T*GC ATC CCC CAG GCC ACC AT* 3′, T* = L-Thymidine, all P=S; antisense to mouse ICAM-1 (antisense TGCATCCCCCAGGCCACCAT; chemistry not fully specified)	> 90	−1.76	–
ISIS 121785: 5′ T*C^oC^oGCGCTGTGATGCA^oT^oT* 3′ (SEQ ID NO:2), L-thymidine caps, 2′-O-MOE, all P=S (DNA NNNCGCTGTGATGCNNN; L-thymidine caps, 2'-O-MOE, phosphorothioate, chemistry not fully specified)	–	2.7	63.3
